Data taken from patent US11969428B2, “Methods and pharmaceutical compositions for treating lymphoid malignancy” (priority 2011, dated 2024).

How the values were obtained:
Assay in all cases: Ambit KinomeScan screening
Assay type in all cases: binding
Conditions in all cases: CAL-130 10 μM
IKK-[…] = molecular target: T1, IKK-[…] (Homo sapiens, UniProt Q14164)
T1 construct: Ambit (KinomeScan screening)
In short: (§1)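 Competition binding, 10 μM CAL-130 vs immobilized bait ligand; tagged kinases; readout % of control binding (lower = tighter); >35% = non-hit.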

ANKK1 = molecular target: T2, ANKK1 (Homo sapiens, UniProt Q8NFD2)
T2 construct: purchased Ambit (KinomeScan screening)
In short: as §1

TGFBR1 = molecular target: T3, TGFBR1 (Homo sapiens, UniProt P36897)
T3 construct: unspecified tag (tagged kinase); purchased Ambit (KinomeScan screening)
In short: as §1

CIT = molecular target: T4, CIT (Homo sapiens, UniProt O14578)
T4 construct: purchased Ambit (KinomeScan screening service)
In short: as §1

MARK3 = molecular target: T5, MARK3 (Homo sapiens, UniProt P27448)
T5 construct: purchased Ambit (KinomeScan screening)
In short: as §1

EPHA1 = molecular target: T6, EPHA1 (Homo sapiens, UniProt P21709)
T6 construct: purchased Ambit (KinomeScan screening service)
In short: as §1

EGFR(L858R, T790M) = molecular target: T7, EGFR(L858R, T790M) (Homo sapiens, UniProt P00533, L858R/T790M)
T7 construct: unspecified tag; purchased Ambit (KinomeScan screening service)
In short: as §1

PIM3 = molecular target: T8, PIM3 (Homo sapiens, UniProt Q86V86)
T8 construct: unspecified tag; purchased Ambit (KinomeScan screening panel)
In short: as §1

ACVR2B = molecular target: T9, ACVR2B (Homo sapiens, UniProt Q13705)
T9 construct: purchased Ambit (KinomeScan screening)
In short: as §1

PRP4 = molecular target: T10, PRP4 (Homo sapiens, UniProt Q13523)
T10 construct: tag (kind not specified); purchased Ambit (KinomeScan screening service)
In short: as §1

HIPK1 = molecular target: T11, HIPK1 (Homo sapiens, UniProt Q86Z02)
T11 construct: unspecified tag ('tagged kinases'); purchased Ambit (KinomeScan screening service)
T11 sequence (Q86Z02 whole entry): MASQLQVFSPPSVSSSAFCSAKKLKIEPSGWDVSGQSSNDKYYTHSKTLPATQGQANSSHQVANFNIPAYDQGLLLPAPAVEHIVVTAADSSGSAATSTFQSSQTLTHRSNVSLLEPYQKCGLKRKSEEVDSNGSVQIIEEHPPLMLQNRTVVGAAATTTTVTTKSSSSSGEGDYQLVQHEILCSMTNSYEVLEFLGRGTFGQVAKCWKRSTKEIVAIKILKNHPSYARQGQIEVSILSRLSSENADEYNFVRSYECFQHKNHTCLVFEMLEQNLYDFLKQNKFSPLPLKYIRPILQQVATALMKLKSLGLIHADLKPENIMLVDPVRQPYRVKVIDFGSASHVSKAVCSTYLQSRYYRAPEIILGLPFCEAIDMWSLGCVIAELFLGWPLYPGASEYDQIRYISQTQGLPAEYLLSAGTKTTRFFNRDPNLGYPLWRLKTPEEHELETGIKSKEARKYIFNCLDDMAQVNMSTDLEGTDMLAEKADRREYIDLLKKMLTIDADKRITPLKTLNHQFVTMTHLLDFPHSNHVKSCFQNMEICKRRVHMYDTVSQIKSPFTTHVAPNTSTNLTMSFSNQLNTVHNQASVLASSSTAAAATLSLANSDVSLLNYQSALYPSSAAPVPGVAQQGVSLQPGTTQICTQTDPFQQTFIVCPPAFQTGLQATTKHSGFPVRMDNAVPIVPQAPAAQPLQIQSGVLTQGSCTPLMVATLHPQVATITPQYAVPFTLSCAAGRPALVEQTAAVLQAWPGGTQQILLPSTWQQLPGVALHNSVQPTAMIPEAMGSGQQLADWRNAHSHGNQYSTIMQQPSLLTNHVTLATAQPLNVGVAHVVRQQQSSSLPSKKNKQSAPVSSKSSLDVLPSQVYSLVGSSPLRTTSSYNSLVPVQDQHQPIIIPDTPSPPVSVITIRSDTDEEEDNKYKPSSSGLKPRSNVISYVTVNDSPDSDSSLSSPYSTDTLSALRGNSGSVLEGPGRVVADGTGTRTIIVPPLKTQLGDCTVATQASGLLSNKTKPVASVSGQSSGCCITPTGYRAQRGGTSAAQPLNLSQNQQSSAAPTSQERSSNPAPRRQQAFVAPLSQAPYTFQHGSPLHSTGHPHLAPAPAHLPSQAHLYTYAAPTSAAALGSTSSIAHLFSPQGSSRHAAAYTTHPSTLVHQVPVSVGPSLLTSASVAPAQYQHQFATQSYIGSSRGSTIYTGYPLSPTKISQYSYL
In short: as §1

TRKA = molecular target: T12, TRKA (Homo sapiens, UniProt P04629)
T12 construct: unspecified tag (tagged kinase); purchased Ambit (KinomeScan screening)
In short: as §1

NEK9 = molecular target: T13, NEK9 (Homo sapiens, UniProt Q8TD19)
T13 construct: purchased Ambit (KinomeScan screening service)
In short: as §1

ABL1 = molecular target: T14, ABL1 (Homo sapiens, UniProt P00519)
T14 construct: unspecified tag ("tagged kinases"); purchased Ambit (KinomeScan screening)
In short: as §1

FGFR3 = molecular target: T15, FGFR3 (Homo sapiens, UniProt P22607)
T15 construct: unspecified tag; purchased Ambit (KinomeScan screening service)
In short: as §1

SYK = molecular target: T16, SYK (Homo sapiens, UniProt P43405)
T16 construct: tag (kind not specified); purchased Ambit (KinomeScan screening service)
In short: as §1

YANK3 = molecular target: T17, YANK3 (Homo sapiens, UniProt Q86UX6)
T17 construct: purchased Ambit (KinomeScan screening service)
In short: as §1

CDK2 = molecular target: T18, CDK2 (Homo sapiens, UniProt P24941)
T18 construct: purchased Ambit (KinomeScan screening)
In short: as §1

MAP4K5 = molecular target: T19, MAP4K5 (Homo sapiens, UniProt Q9Y4K4)
T19 construct: Ambit (KinomeScan screening)
T19 sequence (Q9Y4K4 whole entry): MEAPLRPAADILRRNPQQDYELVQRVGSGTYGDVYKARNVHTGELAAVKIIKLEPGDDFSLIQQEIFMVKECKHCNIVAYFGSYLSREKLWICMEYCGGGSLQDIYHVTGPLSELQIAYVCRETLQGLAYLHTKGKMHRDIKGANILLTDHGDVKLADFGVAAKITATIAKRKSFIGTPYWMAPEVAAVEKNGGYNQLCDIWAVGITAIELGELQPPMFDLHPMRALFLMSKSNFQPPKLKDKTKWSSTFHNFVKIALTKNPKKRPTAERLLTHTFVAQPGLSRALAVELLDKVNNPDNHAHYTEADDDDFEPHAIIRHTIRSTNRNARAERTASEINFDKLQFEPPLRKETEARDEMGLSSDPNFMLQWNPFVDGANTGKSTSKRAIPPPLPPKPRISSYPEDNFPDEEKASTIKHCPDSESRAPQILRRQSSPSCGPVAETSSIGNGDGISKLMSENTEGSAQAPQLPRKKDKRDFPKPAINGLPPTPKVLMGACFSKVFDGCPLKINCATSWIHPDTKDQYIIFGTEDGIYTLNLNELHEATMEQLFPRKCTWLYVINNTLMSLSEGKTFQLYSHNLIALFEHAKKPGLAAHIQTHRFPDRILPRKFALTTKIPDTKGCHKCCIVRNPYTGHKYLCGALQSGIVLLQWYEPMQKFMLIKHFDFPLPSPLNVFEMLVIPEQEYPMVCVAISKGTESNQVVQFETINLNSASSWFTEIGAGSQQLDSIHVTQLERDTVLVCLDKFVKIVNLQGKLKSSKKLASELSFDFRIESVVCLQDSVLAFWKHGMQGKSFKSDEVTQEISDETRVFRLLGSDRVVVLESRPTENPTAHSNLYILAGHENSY
In short: as §1

PAK2 = molecular target: T20, PAK2 (Homo sapiens, UniProt Q13177)
T20 construct: purchased Ambit (KinomeScan screening service)
In short: as §1

MAP4K4 = molecular target: T21, MAP4K4 (Homo sapiens, UniProt O95819)
T21 construct: Ambit (KinomeScan screening)
In short: as §1

EPHB4 = molecular target: T22, EPHB4 (Homo sapiens, UniProt P54760)
T22 construct: purchased Ambit (KinomeScan screening service)
In short: as §1

HIPK2 = molecular target: T23, HIPK2 (Homo sapiens, UniProt Q9H2X6)
T23 construct: unspecified tag ('tagged kinases'); purchased Ambit (KinomeScan screening service)
In short: as §1

LYN = molecular target: T24, LYN (Homo sapiens, UniProt P07948)
T24 construct: unspecified tag ('tagged kinases'); purchased Ambit (KinomeScan screening service)
In short: as §1

ZAK = molecular target: T25, ZAK (Homo sapiens, UniProt Q9NYL2)
T25 construct: purchased Ambit (KinomeScan screening service)
In short: as §1

MRCKB = molecular target: T26, MRCKB (Homo sapiens, UniProt Q9Y5S2)
T26 construct: unspecified tag ('tagged kinases'); purchased Ambit (KinomeScan screening)
In short: as §1

ACVR1B = molecular target: T27, ACVR1B (Homo sapiens, UniProt P36896)
T27 construct: unspecified tag ("tagged kinases"); purchased Ambit (KinomeScan screening)
In short: as §1

MERTK = molecular target: T28, MERTK (Homo sapiens, UniProt Q12866)
T28 construct: purchased Ambit (KinomeScan screening)
T28 sequence (Q12866 21-999): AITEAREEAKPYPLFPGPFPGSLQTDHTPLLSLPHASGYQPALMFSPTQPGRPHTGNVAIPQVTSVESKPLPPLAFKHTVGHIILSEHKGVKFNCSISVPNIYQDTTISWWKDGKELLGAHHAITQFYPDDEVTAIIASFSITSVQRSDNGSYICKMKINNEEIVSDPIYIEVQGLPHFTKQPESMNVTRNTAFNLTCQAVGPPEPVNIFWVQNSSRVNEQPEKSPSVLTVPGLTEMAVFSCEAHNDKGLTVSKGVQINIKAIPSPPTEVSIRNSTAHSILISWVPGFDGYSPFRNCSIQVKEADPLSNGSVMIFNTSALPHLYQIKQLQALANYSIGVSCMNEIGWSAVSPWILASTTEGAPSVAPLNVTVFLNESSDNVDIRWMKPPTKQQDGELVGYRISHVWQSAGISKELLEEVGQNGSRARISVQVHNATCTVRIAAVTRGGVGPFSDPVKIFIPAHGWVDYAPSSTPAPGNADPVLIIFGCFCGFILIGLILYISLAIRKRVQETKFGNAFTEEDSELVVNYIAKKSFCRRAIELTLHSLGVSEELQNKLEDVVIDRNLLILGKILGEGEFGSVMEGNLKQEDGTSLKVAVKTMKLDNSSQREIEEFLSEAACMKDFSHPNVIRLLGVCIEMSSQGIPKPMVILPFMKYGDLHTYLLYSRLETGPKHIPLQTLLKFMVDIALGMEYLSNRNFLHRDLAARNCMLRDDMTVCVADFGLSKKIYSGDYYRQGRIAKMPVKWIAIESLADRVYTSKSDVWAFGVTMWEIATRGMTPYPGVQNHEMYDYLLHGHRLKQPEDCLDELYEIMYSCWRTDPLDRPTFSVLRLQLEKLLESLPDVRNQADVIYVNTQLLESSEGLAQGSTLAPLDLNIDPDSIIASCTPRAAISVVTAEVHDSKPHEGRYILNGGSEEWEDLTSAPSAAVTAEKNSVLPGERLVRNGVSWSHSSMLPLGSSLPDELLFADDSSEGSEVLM
In short: as §1

ULK1 = molecular target: T29, ULK1 (Homo sapiens, UniProt O75385)
T29 construct: tag, kind not specified; purchased Ambit (KinomeScan screening service)
T29 sequence (O75385 whole entry): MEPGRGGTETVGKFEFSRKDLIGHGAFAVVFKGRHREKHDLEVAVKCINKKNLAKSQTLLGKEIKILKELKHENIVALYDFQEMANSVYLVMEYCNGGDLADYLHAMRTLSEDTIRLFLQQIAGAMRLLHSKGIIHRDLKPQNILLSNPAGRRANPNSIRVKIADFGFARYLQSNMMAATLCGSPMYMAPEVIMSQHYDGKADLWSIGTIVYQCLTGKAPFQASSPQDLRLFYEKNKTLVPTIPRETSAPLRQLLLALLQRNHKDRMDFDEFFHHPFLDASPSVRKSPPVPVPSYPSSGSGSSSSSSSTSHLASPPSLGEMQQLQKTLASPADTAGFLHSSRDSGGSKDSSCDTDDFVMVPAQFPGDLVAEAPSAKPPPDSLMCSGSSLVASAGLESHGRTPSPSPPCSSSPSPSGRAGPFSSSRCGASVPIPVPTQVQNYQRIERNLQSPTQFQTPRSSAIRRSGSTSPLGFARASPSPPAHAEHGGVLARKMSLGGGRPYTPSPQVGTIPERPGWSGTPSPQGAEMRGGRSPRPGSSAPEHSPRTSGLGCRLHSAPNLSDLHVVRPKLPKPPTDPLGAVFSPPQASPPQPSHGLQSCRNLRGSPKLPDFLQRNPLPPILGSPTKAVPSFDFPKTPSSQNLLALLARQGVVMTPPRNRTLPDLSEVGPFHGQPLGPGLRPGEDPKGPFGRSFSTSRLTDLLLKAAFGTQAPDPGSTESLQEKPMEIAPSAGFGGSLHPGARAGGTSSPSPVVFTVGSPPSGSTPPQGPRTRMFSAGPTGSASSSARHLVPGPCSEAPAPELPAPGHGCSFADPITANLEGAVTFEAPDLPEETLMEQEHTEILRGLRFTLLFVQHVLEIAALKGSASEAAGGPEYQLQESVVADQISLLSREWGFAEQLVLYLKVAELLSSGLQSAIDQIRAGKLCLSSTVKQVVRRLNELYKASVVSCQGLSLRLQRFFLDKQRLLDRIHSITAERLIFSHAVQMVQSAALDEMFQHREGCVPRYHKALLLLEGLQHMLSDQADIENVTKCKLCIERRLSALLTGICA
In short: as §1

PRKD2 = molecular target: T30, PRKD2 (Homo sapiens, UniProt Q9BZL6)
T30 construct: purchased Ambit (KinomeScan screening service)
In short: as §1

EPHB6 = molecular target: T31, EPHB6 (Homo sapiens, UniProt O15197)
T31 construct: purchased Ambit (KinomeScan screening service)
In short: as §1

PCTK3 = molecular target: T32, PCTK3 (Homo sapiens, UniProt Q07002)
T32 construct: unspecified tag ('tagged kinases'); purchased Ambit (KinomeScan screening)
In short: as §1

STK39 = molecular target: T33, STK39 (Homo sapiens, UniProt Q9UEW8)
T33 construct: tag (kind not specified); purchased Ambit (KinomeScan screening service)
In short: as §1

TAO1 = molecular target: T34, TAO1 (Homo sapiens, UniProt Q9UL54)
T34 construct: tag (kind not specified); purchased Ambit (KinomeScan screening service)
In short: as §1

GRK1 = molecular target: T35, GRK1 (Homo sapiens, UniProt Q15835)
T35 construct: unspecified tag ('tagged kinases'); purchased Ambit (KinomeScan screening service)
In short: as §1

DYRK1B = molecular target: T36, DYRK1B (Homo sapiens, UniProt Q9Y463)
T36 construct: unspecified tag ("tagged kinases"); purchased Ambit (KinomeScan screening service)
T36 sequence (Q9Y463 whole entry): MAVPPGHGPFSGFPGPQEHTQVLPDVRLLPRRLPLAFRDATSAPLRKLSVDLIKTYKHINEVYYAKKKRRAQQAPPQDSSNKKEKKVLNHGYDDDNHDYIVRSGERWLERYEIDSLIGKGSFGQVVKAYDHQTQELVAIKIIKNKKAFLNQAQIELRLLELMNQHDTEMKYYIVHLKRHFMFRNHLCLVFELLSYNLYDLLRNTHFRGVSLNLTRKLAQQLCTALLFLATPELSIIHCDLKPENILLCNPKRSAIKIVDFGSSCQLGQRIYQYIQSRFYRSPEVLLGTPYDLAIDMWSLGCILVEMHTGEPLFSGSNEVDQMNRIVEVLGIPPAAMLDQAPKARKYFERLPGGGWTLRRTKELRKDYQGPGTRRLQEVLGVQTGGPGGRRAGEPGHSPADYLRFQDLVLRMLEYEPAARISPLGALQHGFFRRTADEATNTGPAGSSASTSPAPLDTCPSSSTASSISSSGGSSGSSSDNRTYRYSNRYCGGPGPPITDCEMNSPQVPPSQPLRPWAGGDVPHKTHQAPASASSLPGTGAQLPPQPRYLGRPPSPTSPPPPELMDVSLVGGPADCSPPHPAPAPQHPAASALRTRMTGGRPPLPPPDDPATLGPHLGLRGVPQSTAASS
In short: as §1

Measured: Percent of Control Binding

Cc1ccccc1-n1c(C(C)Nc2nc(N)nc3nc[nH]c23)nc2cccc(C)c2c1=O (stereo not drawn) [CAL-130]
100%: all assays above
